pIC50: −log10 of the molar value. In brackets after ≈: the same amount, converted by molar mass.
Experiments:
Leishmania infantum = assay: Antileishmanial activity against Leishmania infantum MHOM/MA/67/ITMAP-263 axenic amastigotes assessed as inhibition of parasitic metabolic activity incubated for 48 hrs by steady Glow reagent based luminescence assay; assay type: functional, organism-based; conditions: MHOM/MA/67/ITMAP-263, 48 h
Helicobacter pylori = assay: Antibacterial activity against Helicobacter pylori CIP 103995 incubated for 72 hrs under microaerophilic conditions by broth microdilution method; assay type: functional; conditions: CIP 103995, 72 h
Staphylococcus aureus = assay: Antibacterial activity against Staphylococcus aureus ATCC 25923 incubated for 24 hrs by broth microdilution method; assay type: functional; conditions: ATCC 25923, 24 h
Escherichia coli = assay: Antibacterial activity against Escherichia coli ATCC 25922 incubated for 24 hrs by broth microdilution method; assay type: functional; conditions: ATCC 25922, 24 h
Pseudomonas aeruginosa = assay: Antibacterial activity against Pseudomonas aeruginosa ATCC 27853 incubated for 24 hrs by broth microdilution method; assay type: functional; conditions: ATCC 27853, 24 h
Plasmodium falciparum = assay: Antiplasmodial activity against chloroquine-resistant Plasmodium falciparum FcB1 infected in RBC (unknown origin) incubated for 48 hrs by SYBR green dye based fluorescence analysis; assay type: functional, organism-based; conditions: FcB1, 48 h
[1] = Cytotoxicity against mouse RAW264.7 cells assessed as reduction in cell viability incubated for 48 hrs by MTT assay; assay type: cell-based

| Structure (SMILES) | pIC50 (Leishmania infantum) | MIC (Helicobacter pylori) [µg/mL] | MIC (Staphylococcus aureus) [µg/mL] | MIC (Escherichia coli) [µg/mL] | MIC (Pseudomonas aeruginosa) [µg/mL] | pIC50 (Plasmodium falciparum) | CC50 at 48 h [1] [µM] |
| --- | --- | --- | --- | --- | --- | --- | --- |
| C[C@@H]1[C@H](O)[C@@H](C)/C=C/C=C/C=C/C=C/C=C/C=C/C=C/[C@H](O[C@@H]2O[C@H](C)[C@@H](O)[C@H](N)[C@@H]2O)C[C@@H]2O[C@](O)(C[C@@H](O)C[C@@H](O)[C@H](O)CC[C@@H](O)C[C@@H](O)CC(=O)O[C@H]1C)C[C@H](O)[C@H]2C(=O)O [AMPHOTERICIN B] | 7.15 | – | – | – | – | – | – |
| CC[C@H]1OC(=O)[C@H](C)[C@@H](O[C@H]2C[C@@](C)(OC)[C@@H](O)[C@H](C)O2)[C@H](C)[C@@H](O[C@@H]2O[C@H](C)C[C@H](N(C)C)[C@H]2O)[C@](C)(OC)C[C@@H](C)C(=O)[C@H](C)[C@@H](O)[C@]1(C)O [CLARITHROMYCIN] | – | 0.01 (≈ 0.0134 µM) | – | – | – | – | – |
| C/C=C(\C(C)C)[C@H](O)C[C@@H](C)[C@H]1CC[C@@]2(C)[C@@H]3CC[C@H]4[C@H](C)[C@@H](O[C@@H]5OC[C@H](O)[C@H](O)[C@H]5O)CC[C@]4(O)CC3=CC[C@]12C | 5.20 | 15.6 (≈ 25.8 µM) | 31.3 (≈ 51.7 µM) | > 125 | > 125 | 4.27 | 19.6 |
| COc1cccc2c1C(=O)c1c(O)c3c(c(O)c1C2=O)C[C@@](O)(C(=O)CO)C[C@@H]3O[C@H]1C[C@H](N)[C@H](O)[C@H](C)O1 [DOXORUBICIN] | – | – | – | – | – | – | 0.8 |
| C=C(C(C)C)[C@H](O)C[C@@H](C)[C@H]1CC[C@@]2(C)[C@@H]3CC[C@H]4[C@H](C)[C@@H](O[C@@H]5OC[C@@H](O)[C@H](O)[C@H]5O)CC[C@]4(O)CC3=CC[C@]12C | 5.30 | 15.6 (≈ 26.4 µM) | 62.5 (≈ 106 µM) | > 125 | > 125 | < 3.82 | 24.2 |
| C=C(C(C)C)[C@H](O)C[C@@H](C)[C@H]1CC[C@@]2(C)[C@@H]3CC[C@H]4[C@H](C)[C@@H](O[C@@H]5O[C@@H](C)[C@H](O)[C@@H](O)[C@H]5O)CC[C@]4(O)CC3=CC[C@]12C | 5.17 | 31.3 (≈ 51.7 µM) | > 125 | > 125 | > 125 | 4.26 | 35.1 |
| C/C=C(\C(C)C)[C@H](O)C[C@@H](C)[C@H]1CC[C@@]2(C)[C@@H]3CC[C@H]4[C@H](C)[C@@H](O[C@@H]5O[C@@H](C)[C@H](O)[C@@H](O)[C@H]5O)CC[C@]4(O)CC3=CC[C@]12C | 5.28 | 31.3 (≈ 50.6 µM) | > 125 | > 125 | > 125 | 4.21 | 21.9 |
| C/C=C(\C(C)C)[C@H](O)C[C@@H](C)[C@H]1CC[C@@]2(C)[C@@H]3CC[C@H]4[C@H](C)[C@@H](O[C@@H]5OC[C@@H](O)[C@H](O)[C@H]5O)CC[C@]4(O)CC3=CC[C@]12C | 5.28 | 15.6 (≈ 25.8 µM) | > 125 | > 125 | > 125 | 4.33 | 30.3 |
| C=C(C(C)C)[C@H](O)C[C@@H](C)[C@H]1CC[C@@]2(C)[C@@H]3CC[C@H]4[C@H](C)[C@@H](O[C@@H]5OC[C@H](O)[C@H](O)[C@H]5O)CC[C@]4(O)CC3=CC[C@]12C | 5.11 | 15.6 (≈ 26.4 µM) | 31.3 (≈ 53 µM) | > 125 | > 125 | 4.28 | 26.6 |
| CN(C)[C@@H]1C(O)=C(C(N)=O)C(=O)[C@@]2(O)C(O)=C3C(=O)c4c(O)cccc4[C@@](C)(O)[C@H]3C[C@@H]12 [TETRACYCLINE] | – | – | 0.5 (≈ 1.13 µM) | 2 (≈ 4.5 µM) | 16 (≈ 36 µM) | – | – |

From ChEMBL document CHEMBL4414669, “Structural Characterization and Anti-infective Activity of 9,10-Seco-29-norcycloartane Glycosides Isolated from the Flowers of the Peruvian Medicinal Plant Cordia lutea” (J Nat Prod, 2019)
